In US9241964B2, “Composition from Sphaeranthus indicus and Garcinia mangostana for the control of metabolic syndrome” (LAILA NUTRACEUTICALS, priority 2009, dated 2016):

How the values were obtained:
Assay type in all cases: cell-based, mouse
Settings in all cases: immunoblot normalized with actin
[1] = test system: CD36; experiment: Immunoblot of CD36 in 3T3-L1 adipocytes
Text: (§1) The inventors have then evaluated the modulation of metabolic biomarkers those are primarily responsible for the adipogenesis processes, insulin resistance in type 2 diabetes, obesity, metabolic syndrome and other metabolic disorders such as Peroxisome proliferator-activated receptor gamma (PPARγ), CD36, adipocyte fatty acid binding protein 4 (FABP4 or aP2), Perilipin, and beta-3 Adrenergic Receptor (β3AR) during adipogenesis process in 3T3-L1 adipocytes by ethyl actate extract (LI/DD-II/054A/01) of Sphaeranthus indicus and 7-hydroxyfrullanolide (LI054A01) using an immunoblot assay. […] The protein extracts were evaluated by immunoblot assay, and the immuno-reactive bands were developed with West-pico chemiluminescent substrate and the blot images were captured in a Kodak Image Station, normalized with expression of actin.
(§2) Experimental protocol: Mouse pre-adipocyte 3T3-L1 cells are maintained in Dulbecco's Modified Eagles Medium (DMEM) supplemented with 2 mM glutamine, 4.5 g/L glucose and 10% fetal bovine serum. […] Protein content was measured in Bradford method by using Coomassie blue dye and cell lysates were stored in aliquots at −80° C. until further use. […]
(§3) Inhibition of protein expression of biomarker molecules adipocytes in presence or absence of Sphaeranthus indicus extract LI/DD-II/054A/01 and 7-hydroxyfrullanolide (LI054A01) was evaluated in immunoblot assay. […]

[2] = test system: PPARγ; experiment: Immunoblot of PPARγ in 3T3-L1 adipocytes
Text: as §1, §2, §3

[3] = test system: aP2/FABP4; experiment: Immunoblot of aP2/FABP4 in 3T3-L1 adipocytes
Text: as §1, §2, §3

C=C1C(=O)O[C@H]2C3=C(C)CCC[C@]3(C)CC[C@@]12O [LI054A01, 7-α-hydroxy-4,11(13)-eudesmadien-12,6-olide]
potently ameliorated: adipocyte CD36 protein level [1] | PPARγ protein level [2] | aP2/FABP4 protein level [3]
